Results as given in patent publication US20070128217A1 (priority 2003, published 2007).

Columns and labels:
[1] = tested on: recombinant human anti-SARS-CoV antibody 03-018; type: binding; design: Binding of antibody 03-018 to linear peptides of the N protein of SARS-CoV Urbani / Binding of antibody 03-018 to looped/cyclic peptides of the N protein of SARS-CoV Urbani: unit not given here
[2] = tested on: rabbit serum obtained by immunizing a rabbit with the SARS-CoV strain Frankfurt 1; type: binding; design: Binding of a rabbit serum to linear peptides / Binding of a rabbit serum to looped peptides / Rabbit serum linear peptides / Rabbit serum looped peptides / Binding of a rabbit serum to linear peptides of protein N of SARS-CoV Urbani (Rabbit serum linear peptides) / Binding of a rabbit serum to looped/cyclic peptides of protein N of SARS-CoV Urbani (Rabbit serum looped peptides): unit not given here
[3] = tested on: control sera (pooled serum of ten healthy LUMC hospital workers; commercial negative donor pooled serum from the Dutch bloodbank); type: binding, human; design: Binding of Control serum LUMC to linear peptides / Binding of Control serum Blood-bank to linear peptides / Binding of Control serum LUMC to looped peptides / Binding of Control Serum Blood-Bank to Looped peptides / Binding of Control serum LUMC to linear peptides of the protein M of SARS-CoV Urbani / Binding of Control serum Blood-bank to linear peptides of the protein M of SARS-CoV Urbani / Binding of Control serum LUMC to looped peptides of the protein M of SARS-CoV Urbani / Binding of Control Serum Blood-Bank to Looped peptides of the protein M of SARS-CoV Urbani: unit not given here
[4] = tested on: antibodies in sera from SARS patients (sera 1a, 1b, 2, 6, 37, 62, London, SARS-yellow, SARS-green); type: binding, human; design: Binding of serum 6 to linear peptides of protein X1 of SARS-CoV Urbani / Binding of serum 37 to linear peptides of protein X1 of SARS-CoV Urbani / Binding of serum 6 to looped/cyclic peptide (PEPSCAN-ELISA) / Binding of serum 37 to looped/cyclic peptide (PEPSCAN-ELISA) / Binding of serum 37 to looped/cyclic peptides of protein X1 of SARS-CoV Urbani / Binding of serum 6 to linear peptides of protein X2 / Binding of serum 37 to linear peptides of protein X2 / Binding of serum 37 to looped/cyclic peptides of protein X2 of SARS-CoV Urbani / Binding of serum 6 to linear peptides of protein M of SARS-CoV Urbani / Binding of serum 37 to linear peptides of protein M of SARS-CoV Urbani / Binding of serum 6 to looped/cyclic peptides of protein M of SARS-CoV Urbani / Binding of serum 37 to looped/cyclic peptides of protein M of SARS-CoV Urbani / Binding of serum 6 to linear peptides of protein X3 of SARS-CoV Urbani / Binding of serum 37 to linear peptides of protein X3 of SARS-CoV Urbani / Binding of serum 37 to looped/cyclic peptides of protein X3 of SARS-CoV Urbani / Binding of serum 6 to linear peptides of protein X4 of SARS-CoV Urbani / Binding of serum 37 to linear peptides of protein X4 of SARS-CoV Urbani / Binding of serum 37 to looped/cyclic peptides of protein X4 of SARS-CoV Urbani / Binding of serum 6 to linear peptides of protein X5 of SARS-CoV Urbani / Binding of serum 37 to linear peptides of protein X5 of SARS-CoV Urbani / Binding of serum 37 to looped/cyclic peptides of protein X5 of SARS-CoV Urbani / Binding of serum 6 to linear peptides of protein N of SARS-CoV Urbani / Binding of serum 37 to linear peptides of protein N of SARS-CoV Urbani / Binding of serum 6 to linear peptide (PEPSCAN-ELISA) / Binding of serum 1a to looped/cyclic peptides of protein N of SARS-CoV Urbani / Binding of serum 1b to looped/cyclic peptides of protein N of SARS-CoV Urbani / Binding of serum 2 to looped/cyclic peptides of protein N of SARS-CoV Urbani / Binding of serum 6 to looped/cyclic peptides of protein N of SARS-CoV Urbani / Binding of serum 37 to looped/cyclic peptides of protein N of SARS-CoV Urbani / Binding of serum 62 to looped/cyclic peptides of protein N of SARS-CoV Urbani / Binding of serum London to looped/cyclic peptides of protein N of SARS-CoV Urbani / Binding of serum SARS-green to looped/cyclic peptides of protein N of SARS-CoV Urbani: unit not given here

| Sequence | Binding of antibody 03-018 to linear peptides of the N protein of SARS-CoV Urbani [1] | Binding of antibody 03-018 to looped/cyclic peptides of the N protein of SARS-CoV Urbani [1] | Binding of a rabbit serum to linear peptides of protein N of SARS-CoV Urbani (Rabbit serum linear peptides) [2] | Binding of a rabbit serum to looped/cyclic peptides of protein N of SARS-CoV Urbani (Rabbit serum looped peptides) [2] | Binding of serum 1a to linear peptides of protein N of SARS-CoV Urbani [4] | Binding of serum 1a to looped/cyclic peptides of protein N of SARS-CoV Urbani [4] | Binding of serum 1b to linear peptides of protein N of SARS-CoV Urbani [4] | Binding of serum 1b to looped/cyclic peptides of protein N of SARS-CoV Urbani [4] | Binding of serum 2 to linear peptides of protein N of SARS-CoV Urbani [4] | Binding of serum 2 to looped/cyclic peptides of protein N of SARS-CoV Urbani [4] | Binding of serum 6 to linear peptides of protein N of SARS-CoV Urbani [4] | Binding of serum 6 to looped/cyclic peptides of protein N of SARS-CoV Urbani [4] | Binding of serum 37 to linear peptides of protein N of SARS-CoV Urbani [4] | Binding of serum 37 to looped/cyclic peptides of protein N of SARS-CoV Urbani [4] | Binding of serum 62 to linear peptides of protein N of SARS-CoV Urbani [4] | Binding of serum 62 to looped/cyclic peptides of protein N of SARS-CoV Urbani [4] | Binding of serum London to linear peptides of protein N of SARS-CoV Urbani [4] | Binding of serum London to looped/cyclic peptides of protein N of SARS-CoV Urbani [4] | Binding of serum SARS-green to linear peptides of protein N of SARS-CoV Urbani [4] | Binding of serum SARS-green to looped/cyclic peptides of protein N of SARS-CoV Urbani [4] | further results |
| --- | --- | --- | --- | --- | --- | --- | --- | --- | --- | --- | --- | --- | --- | --- | --- | --- | --- | --- | --- | --- | --- |
| EGIVWVATEGALNTP | 0.1 | 0.2 | 0.1 | 0.4 | 0.3 | 0.3 | 0.2 | 0.2 | 0.3 | 0.4 | 0.2 | 0.2 | 0.8 | 0.7 | 0.7 | 0.6 | 0.5 | 0.3 | 0.4 | 0.4 | Binding of Control Serum Blood-Bank to Looped peptides [3]: 0.6; Binding of Control serum Blood-bank to linear peptides [3]: 0.8; Binding of Control serum LUMC to linear peptides [3]: 0.8; Binding of Control serum LUMC to looped peptides [3]: 0.6; Binding of serum SARS-yellow to linear peptides of protein N of SARS-CoV Urbani [4]: 0.6; Binding of serum SARS-yellow to looped/cyclic peptides of protein N of SARS-CoV Urbani [4]: 0.6 |
| KMKELSPRWYFYYLG | 0.1 | 0.2 | 0.1 | 0.6 | 0.2 | 0.3 | 0.1 | 0.2 | 0.1 | 0.4 | 0.1 | 0.3 | 0.5 | 0.7 | 0.5 | 0.7 | 0.4 | 0.4 | 0.1 | 0.4 | Binding of Control Serum Blood-Bank to Looped peptides [3]: 0.8; Binding of Control serum Blood-bank to linear peptides [3]: 0.6; Binding of Control serum LUMC to linear peptides [3]: 0.5; Binding of Control serum LUMC to looped peptides [3]: 0.6; Binding of serum SARS-yellow to linear peptides of protein N of SARS-CoV Urbani [4]: 0.6; Binding of serum SARS-yellow to looped/cyclic peptides of protein N of SARS-CoV Urbani [4]: 0.6 |
| LLNKHIDAYKTFPPT | 0.1 | 0.2 | 0.2 | 0.4 | 0.2 | 0.3 | 0.1 | 0.1 | 0.2 | 0.3 | 0.2 | 0.2 | 0.7 | 0.4 | 0.6 | 0.3 | 0.5 | 0.3 | 0.5 | 0.3 | Control Serum Blood-Bank Looped peptides [3]: 0.5; Control serum Blood-bank linear peptides [3]: 0.6; Control serum LUMC linear peptides [3]: 0.7; Control serum LUMC looped peptides [3]: 0.5; Binding of serum SARS-yellow to linear peptides of protein N of SARS-CoV Urbani [4]: 0.6; Binding of serum SARS-yellow to looped/cyclic peptides of protein N of SARS-CoV Urbani [4]: 0.4 |
| GPEASLPYGANKEGI | 0.1 | 0.2 | 0.1 | 0.3 | 0.3 | 0.3 | 0.2 | 0.2 | 0.3 | 0.4 | 0.3 | 0.2 | 0.8 | 0.6 | 0.9 | 0.5 | 0.6 | 0.4 | 0.7 | 0.5 | Binding of Control Serum Blood-Bank to Looped peptides [3]: 0.6; Binding of Control serum Blood-bank to linear peptides [3]: 0.9; Binding of Control serum LUMC to linear peptides [3]: 0.9; Binding of Control serum LUMC to looped peptides [3]: 0.8; Binding of serum SARS-yellow to linear peptides of protein N of SARS-CoV Urbani [4]: 0.6; Binding of serum SARS-yellow to looped/cyclic peptides of protein N of SARS-CoV Urbani [4]: 0.3 |
